Measured values reported in patent publication US11414424B2, “Cardiac sarcomere inhibitors” (Cytokinetics, Inc., priority 2018, dated 2022).

Test system: bovine cardiac myofibrils
Assay: Myofibril assay: PK/LDH-coupled steady-state ATPase activity of skinned bovine cardiac myofibrils
Format: biochemical
Details: Ca2+ activating to 75% of maximal rate
Experimental: To evaluate the effect of compounds on the ATPase activity of full-length cardiac myosin in the context of the native sarcomere, skinned myofibril assays were performed. Bovine cardiac myofibrils were obtained by homogenizing bovine cardiac left ventricular tissue in the presence of a detergent such as triton X-100. Such treatment removes membranes and a majority of the soluble cytoplasmic proteins but leaves intact the cardiac sarcomeric acto-myosin apparatus. Myofibril preparations retain the ability to hydrolyze ATP in a Ca^2+ regulated manner. ATPase activities of such myofibril preparations in the presence and absence of compounds were assayed at Ca^2+ concentrations activating to a defined fraction of the maximal rate (i.e., […], 75%). Small molecule agents were assessed for their ability to inhibit the steady-state ATPase activity of bovine cardiac myofibrils using pyruvate kinase and lactate dehydrogenase (PK/LDH)-coupled enzyme system. This assay regenerates myosin-produced ADP into ATP by oxidizing NADH, producing an absorbance change at 340 nm. Prior to testing small molecule agents, the bovine cardiac myofibrils were assessed for their calcium responsiveness and the calcium concentration that achieves either a 50% (pCa50) or 75% (pCa75) activation of the myofibril system was chosen as the final condition for assessing the inhibitory activity of the small molecule agents. All enzymatic activity was measured in a buffered solution containing 12 mM PIPES (piperazine-N,N′-bis(2-ethanesulfonic acid), 2 mM magnesium chloride at pH 6.8 (PM 12 buffer). Final assay conditions were 1 mg/mL of bovine cardiac myofibrils, 4 U/mL pyruvate kinase, 6 U/mL lactate dehydrogenase, 50 μM ATP, 0.1 mg/mL BSA (bovine serum albumin), 10 ppm antifoam, 1 mM DTT, 0.5 mM NADH, 1.5 mM PEP, 0.6 mM EGTA, and an amount of CaCl2 sufficient to achieve either 50% or 75% activation of the myofibril ATPase activity. Results for compounds tested are provided in Table A. Compounds tested were prepared in accordance with the synthetic procedures described herein.

CDMF75 IC15 [µM]	SMILES
9.6	CC(C)N1CC(=O)N(Cc2ccc(Cl)cc2)C2(CN(c3cscn3)C2)C1=O [Compound 32, 5-(4-chlorobenzyl)-8-isopropyl-2-(thiazol-4-yl)-2,5,8-triazaspiro[3.5]-nonane-6,9-dione]
5.4	CC(C)N1CC(=O)N(Cc2ccc(Cl)cc2)C2(CN(c3cncs3)C2)C1=O [Compound 33, 5-(4-chlorobenzyl)-8-isopropyl-2-(thiazol-5-yl)-2,5,8-triazaspiro[3.5]-nonane-6,9-dione]
10.4	CC(C)N1CC(=O)N(Cc2ccc(Cl)cc2)C2(CN(c3ccnc(C4CC4)c3)C2)C1=O [Compound 34, 5-(4-chlorobenzyl)-2-(2-cyclopropylpyridin-4-yl)-8-isopropyl-2,5,8-triazaspiro[3.5]nonane-6,9-dione]
14.6	COC(=O)c1cc(N2CC3(C2)C(=O)N(C(C)C)CC(=O)N3Cc2ccc(Cl)cc2)ccn1 [Compound 35, methyl 4-(5-(4-chloro-benzyl)-8-isopropyl-6,9-dioxo-2,5,8-triazaspiro[3.5]nonan-2-yl)picolinate]
24.5	CC(C)N1CC(=O)N(Cc2ccc(Cl)cc2)C2(CN(c3ccnc(C(=O)O)c3)C2)C1=O [Compound 36, 4-(5-(4-chlorobenzyl)-8-isopropyl-6,9-dioxo-2,5,8-triazaspiro[3.5]nonan-2-yl)picolinic acid]
6.0	CC(C)N1CC(=O)N(Cc2ccc(Cl)cc2)C2(CN(c3ccnc(C(N)=O)c3)C2)C1=O [Compound 37, 4-(5-(4-chlorobenzyl)-8-isopropyl-6,9-dioxo-2,5,8-triazaspiro[3.5]nonan-2-yl)picolinamide]
12.4	CNC(=O)c1cc(N2CC3(C2)C(=O)N(C(C)C)CC(=O)N3Cc2ccc(Cl)cc2)ccn1 [Compound 38, 4-(5-(4-chlorobenzyl)-8-isopropyl-6,9-dioxo-2,5,8-triazaspiro-[3.5]nonan-2-yl)-N-methylpicolinamide]
3.9	CC(C)N1CC(=O)N(Cc2ccc(Cl)cc2)C2(CN(c3nc(C(F)(F)F)cs3)C2)C1=O [Compound 39, 5-(4-chlorobenzyl)-8-isopropyl-2-(4-(trifluoromethyl)thiazol-2-yl)-2,5,8-triazaspiro-[3.5]nonane-6,9-dione]
7.2	CC(C)N1CC(=O)N(Cc2ccc(Cl)cc2)C2(CN(c3nc(C(N)=O)cs3)C2)C1=O [Compound 40, 2-(5-(4-chlorobenzyl)-8-isopropyl-6,9-dioxo-2,5,8-triazaspiro[3.5]nonan-2-yl)thiazole-4-carboxamide]
7.0	CC(C)N1CC(=O)N(Cc2ccc(Cl)cc2)C2(CN(c3cn[nH]c3)C2)C1=O [Compound 41, 5-(4-chlorobenzyl)-8-isopropyl-2-(1H-pyrazol-4-yl)-2,5,8-triazaspiro-[3.5]nonane-6,9-dione]
5.4	CC(C)N1CC(=O)N(Cc2ccc(Cl)cc2)C2(CN(c3ccn(C)c(=O)c3)C2)C1=O [Compound 42, 5-(4-chlorobenzyl)-8-isopropyl-2-(1-methyl-2-oxo-1,2-dihydropyridin-4-yl)-2,5,8-triazaspiro-[3.5]nonane-6,9-dione]
3.3	Cc1csc(N2CC3(C2)C(=O)N(C(C)C)CC(=O)N3Cc2ccc(Cl)cc2)n1 [Compound 43, 5-(4-chlorobenzyl)-8-isopropyl-2-(4-methyl-thiazol-2-yl)-2,5,8-triazaspiro[3.5]nonane-6,9-dione]
2.4	Cc1cnc(N2CC3(C2)C(=O)N(C(C)C)CC(=O)N3Cc2ccc(Cl)cc2)s1 [Compound 44, 5-(4-chlorobenzyl)-8-isopropyl-2-(5-methyl-thiazol-2-yl)-2,5,8-triazaspiro[3.5]nonane-6,9-dione]
12.8	Cc1nnc(N2CC3(C2)C(=O)N(C(C)C)CC(=O)N3Cc2ccc(Cl)cc2)o1 [Compound 45, 5-(4-chlorobenzyl)-8-isopropyl-2-(5-methyl-1,3,4-oxadiazol-2-yl)-2,5,8-triazaspiro[3.5]-nonane-6,9-dione]
0.9	CC(C)N1CC(=O)N(Cc2ccc(C(F)(F)F)cc2)C2(CN(c3ccccn3)C2)C1=O [Compound 46, 8-isopropyl-2-(pyridin-2-yl)-5-(4-(trifluoromethyl)-benzyl)-2,5,8-triazaspiro-[3.5]nonane-6,9-dione]

The remaining lines, values behind:

SMILES	CDMF75 IC15 [µM]
Cc1cncc(N2CC3(C2)C(=O)N(C(C)C)CC(=O)N3Cc2ccc(Cl)cc2)c1 [Compound 16, 5-(4-chlorobenzyl)-8-isopropyl-2-(5-methyl-pyridin-3-yl)-2,5,8-triazaspiro[3.5]nonane-6,9-dione]	2.7
CC(C)N1CC(=O)N(Cc2ccc(Cl)cc2)C2(CN(c3ccc(F)cn3)C2)C1=O [Compound 17, 5-(4-chlorobenzyl)-2-(5-fluoropyridin-2-yl)-8-isopropyl-2,5,8-triazaspiro[3.5]nonane-6,9-dione]	1.7
CC(C)N1CC(=O)N(Cc2ccc(Cl)cc2)C2(CN(c3cncc(F)c3)C2)C1=O [Compound 18, 5-(4-chlorobenzyl)-2-(5-fluoropyridin-3-yl)-8-isopropyl-2,5,8-triazaspiro[3.5]nonane-6,9-dione]	3.1
CC(C)N1CC(=O)N(Cc2ccc(Cl)cc2)C2(CN(c3ccncn3)C2)C1=O [Compound 19, 5-(4-chlorobenzyl)-8-isopropyl-2-(pyrimidin-4-yl)-2,5,8-triazaspiro-[3.5]nonane-6,9-dione]	5.7
CC(C)N1C(=O)C2(CN(c3ccc(F)cc3)C2)N(Cc2ccc(Cl)cc2)C(=O)C1C (stereo not shown) [Compound 20, 5-(4-chlorobenzyl)-2-(4-fluorophenyl)-8-isopropyl-7-methyl-2,5,8-triazaspiro[3.5]nonane-6,9-dione]	7.5
CC(C)N1CC(=O)N(Cc2ccc(Cl)cc2)C2(CN(c3cnn(C)c3)C2)C1=O [Compound 21, 5-(4-chlorobenzyl)-8-isopropyl-2-(1-methyl-1H-pyrazol-4-yl)-2,5,8-triazaspiro[3.5]nonane-6,9-dione]	2.6
CC(C)N1CC(=O)N(Cc2ccc(Cl)cc2)C2(CN(c3nccs3)C2)C1=O [Compound 22, 5-(4-chlorobenzyl)-8-isopropyl-2-(thiazol-2-yl)-2,5,8-triazaspiro[3.5]-nonane-6,9-dione]	4.1
CC(C)N1CC(=O)N(Cc2ccc(Cl)cc2)C2(CN(c3cccnn3)C2)C1=O [Compound 23, 5-(4-chlorobenzyl)-8-isopropyl-2-(pyridazin-3-yl)-2,5,8-triazaspiro[3.5]-nonane-6,9-dione]	2.2
CC(C)N1CC(=O)N(Cc2ccc(Cl)cc2)C2(CN(c3ccnnc3)C2)C1=O [Compound 24, 5-(4-chlorobenzyl)-8-isopropyl-2-(pyridazin-4-yl)-2,5,8-triazaspiro[3.5]-nonane-6,9-dione]	5.7
CC(C)N1CC(=O)N(Cc2ccc(Cl)cc2)C2(CN(c3cncnc3)C2)C1=O [Compound 25, 5-(4-chlorobenzyl)-8-isopropyl-2-(pyrimidin-5-yl)-2,5,8-triazaspiro-[3.5]nonane-6,9-dione]	8.8
Cc1cc(N2CC3(C2)C(=O)N(C(C)C)CC(=O)N3Cc2ccc(Cl)cc2)n[nH]1 [Compound 26, 5-(4-chlorobenzyl)-8-isopropyl-2-(5-methyl-1H-pyrazol-3-yl)-2,5,8-triazaspiro[3.5]nonane-6,9-dione]	3.0
CC(C)N1CC(=O)N(Cc2ccc(Cl)cc2)C2(CN(c3ccnc(C#N)c3)C2)C1=O [Compound 27, 4-(5-(4-chlorobenzyl)-8-isopropyl-6,9-dioxo-2,5,8-triazaspiro[3.5]nonan-2-yl)picolinonitrile]	8.6
CC(C)N1CC(=O)N(Cc2ccc(Cl)cc2)C2(CN(c3ccnc(O)c3)C2)C1=O [Compound 28, 5-(4-chlorobenzyl)-2-(2-hydroxypyridin-4-yl)-8-isopropyl-2,5,8-triazaspiro[3.5]nonane-6,9-dione]	3.1
CC(C)N1CC(=O)N(Cc2ccc(Cl)cc2)C2(CN(c3ccnc(C(F)F)c3)C2)C1=O [Compound 29, 5-(4-chlorobenzyl)-2-(2-(difluoromethyl)pyridin-4-yl)-8-isopropyl-2,5,8-triazaspiro[3.5]nonane-6,9-dione]	5.6
Cc1ccc(CN2C(=O)CN(C(C)C)C(=O)C23CN(c2ccnc(C)c2)C3)cc1 [Compound 30, 8-isopropyl-5-(4-methylbenzyl)-2-(2-methylpyridin-4-yl)-2,5,8-triazaspiro[3.5]-nonane-6,9-dione]	21.1
Cc1cc(N2CC3(C2)C(=O)N(C(C)C)CC(=O)N3Cc2ccc(C(F)(F)F)cc2)ccn1 [Compound 31, 8-isopropyl-2-(2-methylpyridin-4-yl)-5-(4-(trifluoromethyl)benzyl)-2,5,8-triazaspiro[3.5]-nonane-6,9-dione]	2.7
